Data from patent US20230026277A1, “COMPOSITION FOR PREVENTION, ALLEVIATION, OR TREATMENT OF RESPIRATORY DISEASE” (MICROX CO., LTD., priority 2019, published 2023).

Tested on: IL-4, IL-5, and IL-13
Assay: Cytokines in bronchoalveolar lavage fluid by ELISA, asthma-induced mice
Assay type: in vivo
Protocol: Eight-week-old female […] mice (Orient Bio Korea Inc., Korea) having no certain pathogen were accommodated in an aseptic laminar-flow cabinet, and bred by supplying a standard solid feed ad libitum. When the following experiment was performed, the mice were made to correspond to 7- to 8-weeks old, and all laboratory animals were managed according to the protocol approved by the Institutional Animal Care and Use Committee of the Chonbuk National University Medical School.
Also, on days 21 and 28 from the experimental starting date, the mice were put into a plastic box (Plexiglas (Rohm & Haas, Philadelphia, Pa.) exposure chamber; 24.5 cm×40.5 cm×15.0 cm), and 1.5% ovalbumin was evaporated using an ultrasonic nebulizer (NE-U12; output 0.8 mL/min; Omron, Japan), and injected into the box for 30 minutes so that the mice inhaled the evaporated ovalbumin (secondary challenge).
After the mice were anesthetized, a thin tube was inserted into the airway, and a piston process was repeated using a syringe filled with 0.2 mL of physiological saline to obtain a bronchoalveolar lavage fluid. The bronchoalveolar lavage fluid obtained through this piston process was stored at −70° C. when it was not immediately used in the experiments.
A level of cytokines in the bronchoalveolar lavage fluid obtained in Experimental Method 2 was measured using an ELISA kit. Here, ELISA kits specifically manufactured for TNF-α, IL-4, IL-5, and IL-13 were used.
Preparation Example 3 (α,δ-NA-L-G) or α,δ N-acetyl-D-glutamine was orally administered to the asthma-induced mice of Experimental Method 1 at a concentration of 100, 200, 400 or 800 μg/kg/day 30 minutes before a secondary airway challenge, and levels of IL-4, IL-5, and IL-13 were measured through the method described above in Experimental Method 4 24 hours after the secondary challenge. The results are shown in A and B of FIG. 4.

SMILES: CC(=O)NC(=O)CC[C@H](NC(C)=O)C(=O)O [Preparation Example 3, 2,5-diacetamido-5-oxopentanoic acid]
- levels of IL-4, IL-5, and IL-13 (asthma-induced mice, oral 200 μg/kg/day 30 minutes before secondary challenge, measured 24 hours after, FIG. 4A): remarkably inhibited
- expression levels of the cytokines (experiment [5-6], together with siRNA specific to MKP-1, FIG. 13): increased
- expression levels of the cytokines (IL-4, IL-5, and IL-13) (experiment [5-6], without MKP-1 siRNA, FIG. 13): decreased
